T1: liver COMT (Rattus norvegicus, UniProt P22734)
T1 construct: Aliquots of 0.5 ml of liver and whole brain homogenates were preincubated; from tissue; host or cells: liver homogenate of male Wistar rats
T1 sequence (P22734 44-264 limits assumed): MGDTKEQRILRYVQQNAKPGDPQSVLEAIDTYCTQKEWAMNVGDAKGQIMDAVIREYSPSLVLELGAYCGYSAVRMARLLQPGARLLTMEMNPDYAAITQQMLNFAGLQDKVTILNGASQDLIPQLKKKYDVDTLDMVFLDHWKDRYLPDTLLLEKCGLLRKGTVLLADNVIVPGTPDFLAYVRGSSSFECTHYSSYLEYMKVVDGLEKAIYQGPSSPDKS

T2: brain COMT (Rattus norvegicus, UniProt P22734)
T2 construct: Aliquots of 0.5 ml of liver and whole brain homogenates were preincubated; from tissue; host or cells: whole brain homogenate of male Wistar rats
T2 sequence (P22734 1-264): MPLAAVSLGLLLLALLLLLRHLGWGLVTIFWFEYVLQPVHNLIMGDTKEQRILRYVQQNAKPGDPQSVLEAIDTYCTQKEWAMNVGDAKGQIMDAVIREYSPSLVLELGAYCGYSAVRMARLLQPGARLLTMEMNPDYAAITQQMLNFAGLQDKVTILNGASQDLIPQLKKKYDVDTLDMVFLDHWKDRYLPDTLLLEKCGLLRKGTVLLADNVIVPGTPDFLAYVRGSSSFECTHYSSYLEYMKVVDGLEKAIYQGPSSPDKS

T3: rat liver COMT (Rattus norvegicus, UniProt P22734)
T3 construct: Aliquots of 0.5 ml of liver and whole brain homogenates were preincubated; from tissue; host or cells: liver homogenate of male Wistar rats
T3 sequence (P22734 44-264 limits assumed): T1 sequence (P22734 44-264 limits assumed)

T4: rat brain COMT (Rattus norvegicus, UniProt P22734)
T4 construct: Aliquots of 0.5 ml of liver and whole brain homogenates were preincubated; from tissue; host or cells: whole brain homogenate of male Wistar rats
T4 sequence (P22734 1-264): T2 sequence (P22734 1-264)

B1: rat brain COMT (Rattus norvegicus) (protein)
chain: T2 sequence (P22734 1-264)
B2: rat liver COMT (Rattus norvegicus) (protein)
chain: T1 sequence (P22734 44-264 limits assumed)

What was measured:
[1] = literature values (Dingemanse 1995; Keranen 1994); cited from earlier work
rats = assay: Behavioural testing: potentiation of amphetamine-induced hyperactivity (locomotor activity, stereotypies); type: in vivo, rat; details: for pattern of locomotor activity and stereotyped behaviour versus corresponding controls: given p.o. six hours before amphetamine challenge (0.5, 2.0, 4.0 mg/kg s.c.)
liver COMT = target: T1, liver COMT; assay: Liver COMT activity in homogenates after administration of test compounds by gastric tube; type: in vivo; details: for % inhibition of COMT activity, liver, 0.5 h / % inhibition of COMT activity, liver, 1 h / % inhibition of COMT activity, liver, 3 h / % inhibition of COMT activity, liver, 6 h / % inhibition of COMT activity, liver, 9 h: rat liver homogenate, mean ± S.E.M., n=4; for % inhibition of COMT activity, liver, 0.5 h: 0.5 h after administration by gastric tube; for % inhibition of COMT activity, liver, 1 h: 1 h after administration by gastric tube; for % inhibition of COMT activity, liver, 3 h: 3 h after administration by gastric tube; for % inhibition of COMT activity, liver, 6 h: 6 h after administration by gastric tube; for % inhibition of COMT activity, liver, 9 h: 9 h after administration by gastric tube
brain COMT = target: T2, brain COMT; assay: Brain COMT activity in homogenates after administration of test compounds by gastric tube; type: in vivo; details: for % inhibition of COMT activity, brain, 0.5 h / % inhibition of COMT activity, brain, 1 h / % inhibition of COMT activity, brain, 3 h / % inhibition of COMT activity, brain, 6 h / % inhibition of COMT activity, brain, 9 h: rat brain homogenate, mean ± S.E.M., n=4; for % inhibition of COMT activity, brain, 0.5 h: 0.5 h after administration by gastric tube; for % inhibition of COMT activity, brain, 1 h: 1 h after administration by gastric tube; for % inhibition of COMT activity, brain, 3 h: 3 h after administration by gastric tube; for % inhibition of COMT activity, brain, 6 h: 6 h after administration by gastric tube; for % inhibition of COMT activity, brain, 9 h: 9 h after administration by gastric tube
rat liver COMT = target: T3, rat liver COMT; assay: In vitro COMT inhibition, rat liver homogenate (methylation of adrenaline to metanephrine); type: biochemical
rat brain COMT = target: T4, rat brain COMT; assay: In vitro COMT inhibition, rat brain homogenate (methylation of adrenaline to metanephrine); type: biochemical
[2] = substrate: CNCC(O)c1ccc(O)c(O)c1; assay: cells, lysate or membranes named; details: saturation experiments, 95% confidence intervals, pH 7.8
[3] = COMT inhibitor 30 mg/kg p.o. 6 h before amphetamine challenge (s.c.)

Molecule	% inhibition of COMT activity, liver, 0.5 h (liver COMT) [%]	% inhibition of COMT activity, liver, 1 h (liver COMT) [%]	% inhibition of COMT activity, liver, 3 h (liver COMT) [%]	% inhibition of COMT activity, liver, 6 h (liver COMT) [%]	% inhibition of COMT activity, liver, 9 h (liver COMT) [%]	% inhibition of COMT activity, brain, 0.5 h (brain COMT) [%]	% inhibition of COMT activity, brain, 1 h (brain COMT) [%]	% inhibition of COMT activity, brain, 3 h (brain COMT) [%]	% inhibition of COMT activity, brain, 6 h (brain COMT) [%]	% inhibition of COMT activity, brain, 9 h (brain COMT) [%]	IC50 (rat liver COMT) [nM]	IC50 (rat brain COMT) [nM]	also measured
Cc1ccc(C(=O)c2cc(O)c(O)c([N+](=O)[O-])c2)cc1 [Tolcapone, 3,4-dihydroxy4′-methyl-5-nitrobenzophenone, reference compound]	100.0 ± 0.0	99.9 ± 0.1	98.0 ± 0.7	94.1 ± 0.3	67.0 ± 4.0	98.9 ± 0.1	98.7 ± 0.2	97.0 ± 0.5	85.8 ± 8.2	77.5 ± 1.8			half-life [1]: 2 h; duration of stereotyped behavior in rats given 4.0 mg/kg amphetamine (rats; [3]): increased two-fold; locomotor activity in rats given 4.0 mg/kg amphetamine (rats; [3]): marked decrease in locomotor activity; locomotor activity in rats treated with 0.5 and 2.0 mg/kg amphetamine (rats; [3]): significantly increase locomotor activity; ED50 (liver COMT; rat, po, read-out: ED50 for inhibiting liver COMT): 0.7 ± 0.1 mg/kg; inhibition in brain and liver COMT at 6 h and 9 h after administration (brain COMT; rat, oral, 6 h and 9 h, brain and liver): marked inhibition; ED50 (brain COMT; rat, po, read-out: ED50 for inhibiting brain COMT): 1.6 ± 0.1 mg/kg
O=C(c1ccccc1)c1cc(O)c(O)c([N+](=O)[O-])c1 [Compound A, 3,4-dihydroxy-5-nitrobenzophenone]	99.0 ± 0.2	98.7 ± 0.2	96.9 ± 2.5	80.5 ± 7.3	31.7 ± 5.5	96.3 ± 0.4	96.8 ± 0.3	97.0 ± 0.3	85.8 ± 7.5	34.9 ± 6.0	935	7.1	
CNCC(O)c1ccc(O)c(O)c1 (centres unmarked) [adrenaline, reference compound]													Vmax of adrenaline O-methylation, liver (rat liver COMT; liver homogenate, saturation experiments): 61.6±3.8 nmol mg protein^−1 h^−‘; Vmax of adrenaline O-methylation, brain (rat brain COMT; whole brain homogenate, saturation experiments): 1.35±0.02 nmol mg protein^−1 h^−‘
O=C(Cc1ccccc1)c1cc(O)c(O)c([N+](=O)[O-])c1 [Compound B, 1-(3,4-Dihydroxy-5-nitrophenyl)-2-phenyl-1-ethanone]													pattern of locomotor activity and stereotyped behaviour versus corresponding controls (rats): same pattern of locomotor activity and stereotyped behaviour as their corresponding controls
O=C(CCc1ccccc1)c1cc(O)c(O)c([N+](=O)[O-])c1 [C]	98.4 ± 0.3	97.8 ± 0.2	95.0 ± 0.7	70.8 ± 12.8	39.9 ± 11.1	89.9 ± 0.7	86.2 ± 0.5	59.8 ± 5.8	33.4 ± 7.0	0.4 ± 5.3	829	3.1	
O=C(CCCc1ccccc1)c1cc(O)c(O)c([N+](=O)[O-])c1 [D]	97.5 ± 0.1	95.3 ± 0.8	67.5 ± 7.8	52.0 ± 9.5	39.0 ± 13.2	85.1 ± 1.7	69.3 ± 5.1	33.5 ± 4.4	26.7 ± 4.0	12.2 ± 5.8	1850	2.9	
CC(N)Cc1ccccc1 (centres unmarked) [amphetamine]													duration of stereotypies during the 600 s observation period (rats; amphetamine 4.0 mg/kg s.c. alone): 250 s; horizontal activity and rearing (rats; amphetamine 0.5 and 2.0 mg/kg s.c. alone): dose-dependent increases
CCN(CC)C(=O)/C(C#N)=C/c1cc(O)c(O)c([N+](=O)[O-])c1 [Entacapone, (E)-2-cyano-N,N-diethyl-3-(3,4-dihydroxy-5-nitrophenyl)acrylamide]													pattern of locomotor activity and stereotyped behaviour versus corresponding controls (rats): same pattern of locomotor activity and stereotyped behaviour as their corresponding controls
O=C(CCCCc1ccccc1)c1cc(O)c(O)c([N+](=O)[O-])c1 [E]	99.2 ± 0.1	98.9 ± 0.3	88.1 ± 3.9	36.0 ± 6.3	−4.0 ± 8.0	87.4 ± 1.3	74.2 ± 4.2	25.0 ± 3.1	−5.6 ± 7.5	−6.7 ± 5.0	1280	6.7	inhibitory profile on brain versus liver COMT after oral administration (liver COMT; rat, comparison of brain and liver COMT inhibition (Table 2)): much more potent upon liver COMT than brain COMT
B1													Km ([2]; other: whole brain homogenate): 0.7 µM
B2													Km ([2]; other: liver homogenate): 238.5 (128.5; 348.5) μM

From patent publication US6512136B1, “Substituted 2-phenyl-1-(3,4-dihydroxy-5-nitrophenyl)-1-ethanones, their use in the treatment of some central and peripheral nervous system disorders and pharmaceutical compositions containing them” (Portela & C.A., S.A., priority 1998, dated 2003)
